Data taken from patent US10543199B2, “Macrocycle and composition comprising thereof” (Shenzhen TargetRx, Inc., priority 2016, dated 2020).

Legend:
[1] = test system: cancer cells expressing the ALK mutant L1196M; test: Cytotoxicity experiments, growth of cells expressing ALK mutant L1196M; assay type: cell-based, murine; conditions: two days incubation
[2] = test system: BaF3-NPM-ALK cells (ALK WT); test: Cytotoxicity experiments, growth of BaF3-NPM-ALK cells, ALK WT; assay type: cell-based, murine; conditions: two days incubation
Text: Cytotoxicity Experiments.
The cell line that can be used in the assay is Ba/F3, a murine pro-B cell line that has been stably transfected with the expression vector pClneo™ (Promega Corp., Madison Wis.) encoding NPM-ALK and subsequently G418-resistent cells were selected. The inhibitory activity of the compounds of Formula I can be determined as follows: BaF3-NPM-ALK cells (15000/well in a microtiter plate) were transferred to a 96-well microtiter plate. Test compounds (dissolved in DMSO) were then added in a series of concentrations (serial dilutions) with a final concentration of DMSO not exceeding 1% (v/v). […] The cell lysis was completed at room temperature within 60 minutes and the amount of Yopro bound to the DNA was determined by measurement using, for example, a CytoFluor II 96-well reader (PerSeptive Biosystems). IC50 can be determined by computer aided system using the following formula: IC50=[(ABS test−ABS start)/(ABS control−ABS start)]×100 wherein ABS was absorption.

[3] = Metabolic stability in human liver microsomes; assay type: in vitro ADME; conditions: human liver microsomes 0.5 mg/mL, compound 1 μM
Protocol: Metabolic Experiment of Liver Microparticle.
Experiments in microsomes: Human liver microsomes: 0.5 mg/mL, Xenotech; Rat liver microsomes: 0.5 mg/mL, Xenotech; Coenzyme (NADPH/NADH): 1 mM, Sigma Life Science; Magnesium chloride: 5 mM, 100 mM phosphate buffer (pH 7.4).
Preparation of phosphate buffer (100 mM, pH7.4): A pre-formulated 0.5M potassium dihydrogen phosphate (150 mL) was mixed with 0.5M dibasic potassium phosphate (700 mL). The pH of the mixture was adjusted to 7.4 with 0.5M dibasic potassium phosphate solution. The mixture was diluted 5-fold with ultrapure water before use, and magnesium chloride was added to obtain a phosphate buffer (100 mM) containing 100 mM potassium phosphate, 3.3 mM magnesium chloride, pH 7.4.
A NADPH regeneration system solution (containing 6.5 mM NADP, 16.5 mM G-6-P, 3 U/mL G-6-PD, 3.3 mM magnesium chloride) was prepared and placed on wet ice prior to use.
Preparation of stop solution: acetonitrile solution containing 50 ng/mL propranolol hydrochloride and 200 ng/mL tolbutamide (internal standard). 25057.5 μL of phosphate buffer (pH 7.4) was taken into a 50 mL centrifuge tube, to which 812.5 μL human liver microsomes were added, and mixed to obtain a liver microsome dilution solution with a protein concentration of 0.625 mg/mL.
Incubation of the samples: The stock solution of the respective compound was respectively diluted to 0.25 mM with an aqueous solution containing 70% acetonitrile, and used as a working solution, ready for use. 398 μL of the dilution solution of human liver microsomes or rat liver microsome were added to a 96-well incubation plate (N=2), respectively, and 2 μL of 0.25 mM working solution was added and mixed.
Metabolic stability assay: 300 μL of pre-chilled stop solution was added to each well of a 96-well deep well plate and placed on ice as a stop plate. The 96 well incubation plate and NADPH regeneration system were placed in a 37° C. water bath box, shaken at 100 rpm and pre-incubated for 5 min. 80 μL of incubation solution was taken out from each well of the incubation plate and added to the stop plate, mixed, and replenished with 20 μL of NADPH regeneration system solution as a 0-min sample. 80 μL of NADPH regeneration system solution was added to each well of the incubation plate to start the reaction and start counting. […] 100 μL of the supernatant was added to a 96-well plate to which 100 μL of distilled water was previously added, mixed, and analyzed by LC-MS/MS.
Data analysis: The peak areas of the corresponding compound and internal standard were detected by LC-MS/MS system, and the ratio of the peak area of the compound to the internal standard was calculated.

CC1Oc2cc(cnc2N)-c2c(nn(C)c2C#N)CN(C)C(=O)c2ccc(F)cc21 (stereo not drawn) [Compound 28] gave an IC50 [1] of 1 to 100 nM and an IC50 [2] of under 1 nM.

In the case of C[C@H]1Oc2cc(cnc2N)-c2c(nn(C)c2C#N)CN(C)C(=O)c2ccc(F)cc21 [PF-06463922, reference compound], the “CLint” value [3] is reported as 11.8 µL/min/mg, the “t1/2” value [3] is reported as 1.952 h and the IC50 [1] is reported as 1 to 100 nM. The IC50 [2] was under 1 nM.

With CC1Oc2cc(cnc2N)-c2c(nn(C)c2C#N)CN(C)C(=O)c2ccc(F)cc21 (stereo not drawn) [Compound 45] the IC50 [1] was 1 to 100 nM and the IC50 [2] was under 1 nM.

For CC1Oc2cc(cnc2N)-c2c(nn(C)c2C#N)CN(C)C(=O)c2ccc(F)cc21 (stereo not drawn) [Compound 76], the IC50 [1] was 1 to 100 nM and the IC50 [2] was under 1 nM.

For CC1Oc2cc(cnc2N)-c2c(nn(C)c2C#N)CN(C)C(=O)c2ccc(F)cc21 (stereo not drawn) [Compound 58], the IC50 [1] was 1 to 100 nM and the IC50 [2] was under 1 nM.

Molecule CC1Oc2cc(cnc2N)-c2c(nn(C)c2C#N)CN(C)C(=O)c2ccc(F)cc21 (stereo not drawn) [Compound 18] has an IC50 [1] of 1 to 100 nM and an IC50 [2] of under 1 nM.

For [2H]C([2H])([2H])n1nc2c(c1C#N)-c1cnc(N)c(c1)OC(C)c1cc(F)ccc1C(=O)N(C)C2 (stereo not drawn) [Compound 28], the “CLint” value [3] was 9.7 µL/min/mg and the “t1/2” value [3] was 2.377 h.

With CC1Oc2cc(cnc2N)-c2c(nn(C)c2C#N)CN(C)C(=O)c2ccc(F)cc21 (racemic) [Compound 72] the IC50 [1] was 1 to 100 nM and the IC50 [2] was under 1 nM.
